Active and inactive are the calls of the source.
How the values were obtained:
[1] = biological target: T1, Ubiquitin-conjugating enzyme E2 N (Homo sapiens, UniProt P61088); type: functional;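 note: Dose-response confirmation in a TR-FRET assay detecting UBC13-driven polyubiquitin chain formation, inhibition measured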
T1 sequence (P61088 whole entry): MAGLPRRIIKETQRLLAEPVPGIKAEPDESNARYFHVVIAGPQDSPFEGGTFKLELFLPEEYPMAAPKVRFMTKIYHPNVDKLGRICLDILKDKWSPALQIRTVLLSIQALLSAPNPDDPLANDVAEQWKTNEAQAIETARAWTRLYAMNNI

[2] = biological target: RNA-editing ligase 1, mitochondrial (Trypanosoma brucei brucei, UniProt P86926); experiment: inhibition of trypanosome RNA editing ligase – biochemical, fluorescence, Trypanosoma brucei, dose response (AID 1117295); type: functional
[3] = viability loss in CEM21 cells – cell-based, CellTiter-Glo luminescence, cherry-picked, cytotoxicity control for viral fusion inhibitor project, dose response (AID 652042); type: functional;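 note: potency for signal decrease meaning cytotoxicity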
[4] = blockers of HIV-1 ZM109 envelope-driven cell-cell fusion – HeLa effector, CEM target cells, luciferase, cherry-pick, dose response (AID 652058); type: functional, cell-based;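 note: luciferase signal from HIV-1 Env mediated cell-cell fusion of effector and target cells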
[5] = blockers of HIV-1 envelope-mediated cell-cell fusion – cherry-pick, dose response (AID 652057); type: functional, cell-based
[6] = HIV-1 AD8 envelope cell-cell fusion blockers – cherry-pick, dose response (AID 652062); type: functional, cell-based;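 note: luciferase signal from cell-cell fusion driven by HIV-1 clade B AD8 Env; potency is for inhibitors of fusion seen as a drop in luminescence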
[7] = biological target: T2, Low molecular weight phosphotyrosine protein phosphatase (Homo sapiens, UniProt P24666); experiment: inhibition of LMPTP-A enzymatic activity – biochemical, OMFP substrate, fluorescence intensity, set 2, dose response (AID 743307); type: functional
T2 sequence (P24666 whole entry): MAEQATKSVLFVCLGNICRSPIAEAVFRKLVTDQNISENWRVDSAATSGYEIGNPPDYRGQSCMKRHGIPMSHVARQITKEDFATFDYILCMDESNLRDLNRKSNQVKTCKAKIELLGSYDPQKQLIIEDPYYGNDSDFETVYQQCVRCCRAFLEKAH

[8] = biological target: T2, Low molecular weight phosphotyrosine protein phosphatase; experiment: inhibition of human LMPTP enzyme activity – biochemical, absorbance, pNPP substrate, LMPTP-A isoform, set 2, orthogonal assay, dose response (AID 743308); type: functional
[9] = viability inhibitors of stage V gametocytes – luminescence, dose response (AID 1117278); type: functional, cell-based;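 note: gametocytes exposed to compound for 24 hours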
[10] = viability loss in human Jurkat cells – cell-based, luminescence, cytotoxicity control for P. falciparum gametocyte viability project, dose response (AID 1117277); type: functional;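 note: potency reflects loss of cellular ATP meaning fewer viable cells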
[11] = viability loss in Vero cells – cytotoxicity control for Vif-APOBEC3G degradation inhibitor project, dose response (AID 1117358); type: functional; details: Vero
[12] = biological target: Photoreceptor-specific nuclear receptor (Homo sapiens, UniProt Q9Y5X4); experiment: ligands suppressing NR2E3 nuclear receptor activity – biochemical, TR-FRET, dose response (AID 463256); type: functional
[13] = biological target: Peroxisome proliferator-activated receptor gamma/Nuclear receptor corepressor 2 (Homo sapiens, UniProt P37231+Q9Y618); experiment: Counterscreen for NR2E3 inverse agonists: TR-FRET-based biochemical high throughput dose response assay to identify inverse agonists of the interaction between peroxisome proliferator-activated receptor gamma (PPARg) and nuclear receptor co-repressor 2 (NCOR2).; type: functional
[14] = biological target: Endoplasmic reticulum aminopeptidase 1 (Homo sapiens, UniProt Q9NZ08); experiment: inhibition of human ERAP1 enzyme activity – biochemical, cherry-pick, set 2, plate reader, dose response (AID 743314)
[15] = reduction of Shn3 3'UTR-driven luciferase in osteoblasts – cell-based, Clone20 osteoblasts, firefly luciferase, cherry-picked, dose response (AID 624132); type: functional;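 note: firefly luciferase luminescence from reporter carrying the Shn3 3'UTR in osteoblasts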
[16] = non-specific 3'UTR reporter inhibition in Clone20-Shn3RL – cell-based, Renilla luciferase, cherry-picked, counter-screen for Shn3 inhibitor project, dose response (AID 624133); type: functional
[17] = loss of viability in HepG2 cells – cell-based, CellTiter-Glo, cherry-picked, cytotoxicity control for Shn3 inhibitor project, dose response (AID 624134); type: functional
[18] = biological target: 1-phosphatidylinositol 4,5-bisphosphate phosphodiesterase gamma-1 (Homo sapiens, UniProt P19174); experiment: Counterscreen for inhibitors of phospholipase C isozymes (PLC-B3): Fluorescence-based biochemical high throughput dose response assay to identify inhibitors of phospholipase C isozymes (PLC-gamma1).
[19] = biological target: 1-phosphatidylinositol 4,5-bisphosphate phosphodiesterase beta-3 (Homo sapiens, UniProt Q01970); experiment: Fluorescence-based biochemical high throughput dose response assay to identify inhibitors of phospholipase C isozymes (PLC-B3).
[20] = general mammalian cell viability loss – activator set, cherry-pick, cytotoxicity control for miR-122 modulator project, dose response (AID 720690); type: functional, cell-based;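 note: HEK293T human cells scored for general mammalian cytotoxicity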
[21] = activation of miR-122 Renilla sensor silencing – cell-based, Huh7 psiCHECK-miR122, Renilla luciferase, cherry-picked, dose response (AID 651956); type: functional;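 note: huh7 hepatoma cells stably carrying a psiCHECK-2 miR-122 sensor plasmid; renilla luciferase signal reporting endogenous miR-122 activity after 48 h compound exposure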
[22] = Dd2 parasite growth inhibition in erythrocytes – SYBR Green, dry powder samples, set 9, dose response (AID 1159568); type: functional, cell-based
Kallikrein-7 = Kallikrein-7 (Homo sapiens, UniProt P49862); experiment: Fluorescence Intensity-based biochemical primary high throughput dose response assay to identify activators of kallikrein-7 (K7) zymogen.
[23] = potency of ADAM10 substrate cleavage blockers – biochemical, QFRET, dose response (AID 743254);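 note: ADAM10 enzyme with the DM2 quenched FRET peptide as substrate; EDANS fluorescence gain as the protease cuts the substrate; inhibitor potency against ADAM10 proteolytic activity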
[24] = biological target: Disintegrin and metalloproteinase domain-containing protein 17 (Homo sapiens, UniProt P78536); experiment: inhibition of ADAM17 substrate cleavage – biochemical, quenched FRET substrate, counter-screen for ADAM10 exosite inhibitor project, dose response (AID 743253)
[25] = biological target: T3, COUP transcription factor 2 (Homo sapiens, UniProt P24468); experiment: Luminescence-based cell-based high throughput dose response assay to identify inhibitors of COUP-TFII (NR2F2).; type: functional;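 note: HEK293 cells transiently cotransfected with COUP-TFII expression vector and reporter; luciferase reporter luminescence driven by COUP-TFII from the pX2-168 reporter plasmid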
T3 sequence (P24468 whole entry): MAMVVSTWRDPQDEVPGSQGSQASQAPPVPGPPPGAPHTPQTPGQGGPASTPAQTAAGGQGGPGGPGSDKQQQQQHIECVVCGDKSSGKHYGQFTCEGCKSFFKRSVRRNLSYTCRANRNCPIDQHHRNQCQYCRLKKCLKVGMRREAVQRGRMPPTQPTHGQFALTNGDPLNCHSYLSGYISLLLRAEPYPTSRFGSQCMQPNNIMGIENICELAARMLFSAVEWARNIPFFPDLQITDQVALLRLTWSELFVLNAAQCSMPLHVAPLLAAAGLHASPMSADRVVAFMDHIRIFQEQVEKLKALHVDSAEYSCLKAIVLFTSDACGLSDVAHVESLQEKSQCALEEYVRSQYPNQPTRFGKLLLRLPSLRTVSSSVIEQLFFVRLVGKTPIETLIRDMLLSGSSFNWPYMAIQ

cells [26] = type: functional, cell-based; details: HEK-CNG
Galanin receptor type 3 = Galanin receptor type 3 (Homo sapiens, UniProt O60755); experiment: Fluorescence-based cell-based primary high throughput dose response assay to identify antagonists of the Galanin Receptor 3 (GalR3).; type: functional
[27] = biological target: Heat shock protein HSP 90-alpha (Homo sapiens, UniProt P07900); experiment: Luminescence-based dose response biochemical high throughput screening assay for inhibitors of the Heat Shock Protein 90 (HSP90). [Related pubchem assays: 1831 (Summary AID.), 1846 (Confirmation screen.), 1789 (Primary screen.)]
[28] = biological target: FAD-linked sulfhydryl oxidase ALR (Homo sapiens, UniProt P55789); experiment: ALR-catalysed DTT oxidation blockers – biochemical, H2O2 detection, luminescence, cherry-pick, dose response (AID 493248)
[29] = biological target: SWI/SNF-related matrix-associated actin-dependent regulator of chromatin subfamily A member 2 (Homo sapiens, UniProt P51531); experiment: Luminescence-based cell-based high throughput dose response assay to identify activators of the function of SWI/SNF related, matrix associated, actin dependent regulator of chromatin, subfamily a, member 2 (SMARCA2, BRM).; type: functional
INS1 = experiment: INS-1E survival protection against cytokine death – cell-based, luminescence, retest, dose response (AID 449756); type: functional; details: Rattus norvegicus;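 note: cell death triggered by IL-1 beta plus TNF-alpha plus IFN-gamma mixture; protective hits raise ATP signal compared with cytokine alone wells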
[30] = biological target: DNA (cytosine-5)-methyltransferase 1 (Homo sapiens, UniProt P26358); experiment: inhibition of DNA methylation by DNMT1 – biochemical, fluorescent molecular beacon, confirmation (AID 602386); type: functional
[31] = Trypanosoma cruzi growth suppression in host cells – NIH3T3 host cells, beta-gal luminescence, confirmation (AID 2044); type: functional, cell-based;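 note: intracellular parasites grown in NIH/3T3 mouse fibroblasts as host cells; luminescent beta-galactosidase reporter signal from transgenic T. cruzi replicating inside host cells; inhibitors lower the luminescence signal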
[32] = NIH3T3 cell viability loss – ATP luminescence, mouse fibroblasts, counter-screen, dose response (AID 2010); type: functional, cell-based;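 note: cells exposed to compound for about 90 hours before reading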
cells [33] = type: functional, cell-based
[34] = Counterscreen for activators of the function of SWI/SNF related, matrix associated, actin dependent regulator of chromatin, subfamily a, member 2 (SMARCA2, BRM): Luminescence-based cell-based high throughput dose response assay to identify non-selective compounds using the VP16 reporter assay.; type: functional
[35] = biological target: E3 ubiquitin-protein ligase UHRF1 (Homo sapiens, UniProt Q96T88); experiment: Counterscreen for inhibitors of 5-meCpG-binding domain protein 2 (MBD2): TRFRET-based biochemical high throughput dose response assay to identify inhibitors of binding of ubiquitin-like with PHD and ring finger domains 1 (UHRF1) to methylated oligonucleotide.
cells [36] = type: functional, cell-based; remark: listed apart in the source
[37] = biological target: T4, DNA repair protein RAD52 homolog (Homo sapiens, UniProt P43351); type: functional, biochemical
T4 sequence (P43351 whole entry): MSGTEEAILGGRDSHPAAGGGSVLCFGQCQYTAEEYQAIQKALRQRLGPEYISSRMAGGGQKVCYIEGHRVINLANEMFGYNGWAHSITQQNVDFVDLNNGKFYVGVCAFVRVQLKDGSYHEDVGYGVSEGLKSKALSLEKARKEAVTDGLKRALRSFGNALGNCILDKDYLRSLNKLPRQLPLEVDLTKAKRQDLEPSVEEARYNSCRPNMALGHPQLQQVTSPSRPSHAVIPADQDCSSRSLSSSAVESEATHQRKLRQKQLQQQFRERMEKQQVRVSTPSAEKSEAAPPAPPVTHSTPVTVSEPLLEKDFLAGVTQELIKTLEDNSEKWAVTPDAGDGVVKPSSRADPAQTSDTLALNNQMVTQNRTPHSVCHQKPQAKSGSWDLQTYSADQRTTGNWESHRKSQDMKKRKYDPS

Chain of RNA-editing ligase 1, mitochondrial (P86926 whole entry, the tested form may be a part): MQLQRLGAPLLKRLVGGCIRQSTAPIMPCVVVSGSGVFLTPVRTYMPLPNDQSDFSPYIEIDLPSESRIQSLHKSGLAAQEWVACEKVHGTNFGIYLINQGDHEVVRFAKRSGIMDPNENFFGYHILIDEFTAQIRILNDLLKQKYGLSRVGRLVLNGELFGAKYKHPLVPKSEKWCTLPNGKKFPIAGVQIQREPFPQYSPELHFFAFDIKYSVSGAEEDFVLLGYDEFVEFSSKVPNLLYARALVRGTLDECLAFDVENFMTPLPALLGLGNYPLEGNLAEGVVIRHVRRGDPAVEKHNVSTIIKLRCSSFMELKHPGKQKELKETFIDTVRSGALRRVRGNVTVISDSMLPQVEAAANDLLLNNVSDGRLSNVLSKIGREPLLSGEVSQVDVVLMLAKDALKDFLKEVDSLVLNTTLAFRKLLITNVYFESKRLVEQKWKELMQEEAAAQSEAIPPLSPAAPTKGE
Chain of Kallikrein-7 (P49862 whole entry): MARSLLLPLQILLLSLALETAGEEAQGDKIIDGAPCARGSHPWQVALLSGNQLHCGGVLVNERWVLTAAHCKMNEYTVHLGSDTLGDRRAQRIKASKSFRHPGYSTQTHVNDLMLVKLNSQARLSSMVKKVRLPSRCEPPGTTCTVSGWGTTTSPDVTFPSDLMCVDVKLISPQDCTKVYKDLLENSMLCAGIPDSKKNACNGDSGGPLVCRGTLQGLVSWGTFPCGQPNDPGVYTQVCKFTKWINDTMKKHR
Chain of Photoreceptor-specific nuclear receptor (Q9Y5X4 whole entry): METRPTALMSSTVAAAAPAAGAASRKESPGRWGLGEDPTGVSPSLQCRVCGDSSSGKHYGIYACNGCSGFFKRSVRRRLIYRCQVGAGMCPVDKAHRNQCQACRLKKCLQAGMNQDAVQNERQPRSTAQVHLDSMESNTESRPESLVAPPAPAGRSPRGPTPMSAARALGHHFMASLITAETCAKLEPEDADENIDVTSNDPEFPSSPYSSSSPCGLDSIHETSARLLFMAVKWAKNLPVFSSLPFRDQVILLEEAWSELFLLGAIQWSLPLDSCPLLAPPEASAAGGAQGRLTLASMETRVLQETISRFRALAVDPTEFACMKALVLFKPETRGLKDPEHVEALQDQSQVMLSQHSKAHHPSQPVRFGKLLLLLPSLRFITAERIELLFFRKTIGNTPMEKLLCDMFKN
Chain of Disintegrin and metalloproteinase domain-containing protein 17 (P78536 whole entry, the tested form may be a part): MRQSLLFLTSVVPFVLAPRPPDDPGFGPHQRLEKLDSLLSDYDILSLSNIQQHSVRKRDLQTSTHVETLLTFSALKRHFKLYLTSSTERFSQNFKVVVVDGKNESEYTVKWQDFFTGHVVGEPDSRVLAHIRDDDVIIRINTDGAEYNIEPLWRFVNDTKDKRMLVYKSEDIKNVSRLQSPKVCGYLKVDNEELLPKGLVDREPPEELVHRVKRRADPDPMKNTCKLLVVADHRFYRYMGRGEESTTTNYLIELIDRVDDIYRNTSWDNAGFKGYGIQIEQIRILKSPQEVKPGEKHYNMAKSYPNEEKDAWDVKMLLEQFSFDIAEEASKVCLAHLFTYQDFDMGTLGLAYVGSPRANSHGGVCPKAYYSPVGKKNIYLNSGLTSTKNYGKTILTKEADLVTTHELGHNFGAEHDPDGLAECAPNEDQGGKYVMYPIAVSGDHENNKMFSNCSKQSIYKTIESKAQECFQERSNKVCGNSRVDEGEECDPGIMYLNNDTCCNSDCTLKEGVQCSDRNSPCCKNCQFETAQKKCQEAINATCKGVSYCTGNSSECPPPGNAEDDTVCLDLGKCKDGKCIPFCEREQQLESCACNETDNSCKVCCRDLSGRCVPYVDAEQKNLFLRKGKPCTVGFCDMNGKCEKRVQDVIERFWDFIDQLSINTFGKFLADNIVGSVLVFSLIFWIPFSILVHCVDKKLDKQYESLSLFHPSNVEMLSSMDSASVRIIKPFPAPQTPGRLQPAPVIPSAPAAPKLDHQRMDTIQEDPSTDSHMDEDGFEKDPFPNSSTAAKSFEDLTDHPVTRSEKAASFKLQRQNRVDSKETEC
Chain of E3 ubiquitin-protein ligase UHRF1 (Q96T88 whole entry, the tested form may be a part): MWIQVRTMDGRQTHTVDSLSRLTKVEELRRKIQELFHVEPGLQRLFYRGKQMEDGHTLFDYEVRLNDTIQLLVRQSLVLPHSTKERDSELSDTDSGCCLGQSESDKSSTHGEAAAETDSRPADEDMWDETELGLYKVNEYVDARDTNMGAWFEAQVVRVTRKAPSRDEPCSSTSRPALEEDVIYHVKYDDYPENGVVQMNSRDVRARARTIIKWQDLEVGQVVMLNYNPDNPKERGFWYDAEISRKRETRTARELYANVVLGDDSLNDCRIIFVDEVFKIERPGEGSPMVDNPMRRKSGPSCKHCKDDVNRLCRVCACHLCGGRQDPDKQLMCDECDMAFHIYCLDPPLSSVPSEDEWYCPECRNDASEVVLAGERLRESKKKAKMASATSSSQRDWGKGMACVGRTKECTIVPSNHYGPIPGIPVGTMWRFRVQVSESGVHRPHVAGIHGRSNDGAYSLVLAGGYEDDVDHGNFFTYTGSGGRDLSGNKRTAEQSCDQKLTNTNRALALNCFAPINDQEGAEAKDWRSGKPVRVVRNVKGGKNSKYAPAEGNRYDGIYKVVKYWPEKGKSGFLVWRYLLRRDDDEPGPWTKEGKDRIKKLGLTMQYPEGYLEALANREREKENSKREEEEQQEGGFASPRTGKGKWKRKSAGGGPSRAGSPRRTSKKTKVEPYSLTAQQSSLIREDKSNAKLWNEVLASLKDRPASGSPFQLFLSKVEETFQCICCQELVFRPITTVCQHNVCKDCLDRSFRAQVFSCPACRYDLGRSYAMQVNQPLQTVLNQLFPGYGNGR
Chain of FAD-linked sulfhydryl oxidase ALR (P55789 whole entry): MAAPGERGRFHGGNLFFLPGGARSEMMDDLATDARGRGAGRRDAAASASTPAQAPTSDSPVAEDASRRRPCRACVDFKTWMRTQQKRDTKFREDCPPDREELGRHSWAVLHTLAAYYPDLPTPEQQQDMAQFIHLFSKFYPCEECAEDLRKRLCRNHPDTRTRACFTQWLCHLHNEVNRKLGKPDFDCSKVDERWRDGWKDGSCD
Chain of Galanin receptor type 3 (O60755 whole entry): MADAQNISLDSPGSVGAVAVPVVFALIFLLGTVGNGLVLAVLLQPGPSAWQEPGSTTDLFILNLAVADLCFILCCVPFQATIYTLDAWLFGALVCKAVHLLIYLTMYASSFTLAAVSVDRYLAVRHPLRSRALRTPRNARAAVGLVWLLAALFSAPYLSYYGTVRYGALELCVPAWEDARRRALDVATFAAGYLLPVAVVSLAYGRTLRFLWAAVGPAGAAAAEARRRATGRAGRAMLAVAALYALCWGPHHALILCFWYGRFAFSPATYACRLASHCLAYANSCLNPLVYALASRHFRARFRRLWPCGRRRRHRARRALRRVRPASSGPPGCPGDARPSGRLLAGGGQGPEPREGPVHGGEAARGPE
Chain of 1-phosphatidylinositol 4,5-bisphosphate phosphodiesterase beta-3 (Q01970 whole entry): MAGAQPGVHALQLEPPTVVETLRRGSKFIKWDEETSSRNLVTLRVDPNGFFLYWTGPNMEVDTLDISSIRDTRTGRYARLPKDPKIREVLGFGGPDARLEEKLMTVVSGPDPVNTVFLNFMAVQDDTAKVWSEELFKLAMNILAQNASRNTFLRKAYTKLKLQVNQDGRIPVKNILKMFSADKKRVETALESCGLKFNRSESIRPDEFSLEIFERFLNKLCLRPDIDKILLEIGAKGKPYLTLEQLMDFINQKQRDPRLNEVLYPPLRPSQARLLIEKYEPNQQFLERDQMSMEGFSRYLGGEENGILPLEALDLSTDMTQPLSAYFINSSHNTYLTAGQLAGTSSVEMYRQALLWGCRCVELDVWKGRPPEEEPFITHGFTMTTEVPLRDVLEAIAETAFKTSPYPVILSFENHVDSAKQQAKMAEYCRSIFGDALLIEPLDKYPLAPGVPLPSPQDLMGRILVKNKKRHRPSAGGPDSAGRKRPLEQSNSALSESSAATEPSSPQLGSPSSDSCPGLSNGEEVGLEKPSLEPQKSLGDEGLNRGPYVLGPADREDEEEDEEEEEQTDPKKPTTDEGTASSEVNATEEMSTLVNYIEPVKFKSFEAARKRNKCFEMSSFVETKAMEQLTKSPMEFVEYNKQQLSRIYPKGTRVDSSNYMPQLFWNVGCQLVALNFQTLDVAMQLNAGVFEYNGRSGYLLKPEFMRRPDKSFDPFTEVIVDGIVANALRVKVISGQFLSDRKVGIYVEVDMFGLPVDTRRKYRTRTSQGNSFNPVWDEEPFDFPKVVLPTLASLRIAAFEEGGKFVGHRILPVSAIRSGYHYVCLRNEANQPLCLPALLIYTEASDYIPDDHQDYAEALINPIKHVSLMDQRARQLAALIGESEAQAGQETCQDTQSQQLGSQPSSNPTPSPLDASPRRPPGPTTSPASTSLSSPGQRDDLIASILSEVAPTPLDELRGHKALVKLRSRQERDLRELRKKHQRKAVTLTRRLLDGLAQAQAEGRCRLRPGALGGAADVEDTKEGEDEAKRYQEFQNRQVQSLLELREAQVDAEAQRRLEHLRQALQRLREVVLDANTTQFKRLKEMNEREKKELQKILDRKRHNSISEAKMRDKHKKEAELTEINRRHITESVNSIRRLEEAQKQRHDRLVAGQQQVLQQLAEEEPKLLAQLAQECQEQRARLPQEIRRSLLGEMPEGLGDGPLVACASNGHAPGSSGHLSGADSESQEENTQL

Compound: CC[C@@H](C)[C@@H]1CN([C@@H](C)CN2CCC[C@H]2CN2C(N)=NC[C@H]2C(C)C)C(=N)N1CCc1ccc(Cl)c(Cl)c1
- IC50 [1]: > 20 µM (inactive)
- IC50 [2]: > 96.6 µM (inactive)

Compound: C[C@@H]1CN([C@H](C)CO)S(=O)(=O)c2ccc(C3=CCCCC3)cc2O[C@@H]1CN(C)S(=O)(=O)c1ccc(F)cc1
- AC50 [3]: 32.5 µM (active)
- AC50 [4]: 12.1 µM (active)
- AC50 [5]: 8.56 µM (active)
- AC50 [6]: 7.76 µM (active)

Compound: Clc1ccc(-c2cc(NCCCN3CCCCC3)c3ccccc3n2)cc1
- IC50 [7]: 1.54 µM (active)
- IC50 [8]: 2.88 µM (active)

Compound: O=C(Nc1ccccn1)C1CCN(S(=O)(=O)c2cccc3nonc23)CC1
- IC50 [9]: > 109 µM (inactive)
- IC50 [10]: > 83.3 µM (inactive)

Compound: Cc1cc(C)c2nc(-c3ccccn3)cc(C(=O)n3cccn3)c2c1
- IC50 [1]: > 20 µM (inactive)
- IC50 [9]: > 109 µM (inactive)
- IC50 [10]: > 83.2 µM (inactive)

Compound: Cc1ccc(C)c(S(=O)(=O)Nc2ccc3scnc3c2)c1
- CC50 [11]: > 40 µM (active)

Compound: O=C(Nc1ccc(Cl)cc1)c1ccc(-c2ccccn2)s1
- IC50 [12]: 8.84 µM (active)
- IC50 [13]: 10.9 µM (not active)

Compound: COC(=O)C1=C(C)N(Cc2cccc(C(F)(F)F)c2)C(NCc2ccccc2C(F)(F)F)=NC1c1ccccc1C(F)(F)F (centres undefined)
- IC50 [2]: > 96.6 µM (inactive)

Compound: COC(=O)[C@H]1[C@H](CO)[C@H]2Cn3c(ccc(/C=C/c4ccccc4)c3=O)[C@@H]1N2C(=O)C1CCC1
- AC50 [14]: 4.93 µM (active)

Compound: c1ccc(-c2nc(N3CCCCC3)c3ccccc3n2)cc1
- IC50 [7]: > 80 µM (inactive)
- IC50 [8]: > 80 µM (inactive)

Compound: Nc1nonc1C(=O)NCCNCc1cc(Br)ccc1OCc1ccccc1F
- AC50 [3]: 40.5 µM (active)
- AC50 [15]: 2.5 µM (active)
- AC50 [6]: 14.9 µM (active)
- AC50 [16]: 910 nM (active)
- AC50 [17]: 40.4 µM (active)

Compound: COc1cc(C(=O)Nc2ccc3c(c2)C(=O)N(CCC(=O)O)C3=O)cc(OC)c1OC
- IC50 [18]: > 122 µM (inactive)
- IC50 [19]: > 122 µM (inactive)

Compound: CN1C(=O)c2cc(NC(=O)c3ccc(C(F)(F)F)cc3)ccc2OC[C@H]2O[C@H](CC(=O)NCc3ccc4c(c3)OCO4)CC[C@@H]21
- AC50 [20]: 22 µM (active)
- AC50 [21]: 8.04 µM (active)
- AC50 [22]: 12.6 µM (active)

Compound: O=C(O)C[C@H]1CC[C@@H]2[C@H](COC[C@@H](O)CN2S(=O)(=O)c2ccc(Oc3ccccc3)cc2)O1
- AC50 [22]: 31.1 µM (active)

Compound: O=C1c2ccccc2NC(c2ccccc2)N1Cc1ccco1 (centres undefined)
- EC50 (Kallikrein-7): > 69.5 µM (inactive)

Compound: CCCCCCNC(=O)O[C@H]1Cn2c(=O)n(CCCCCC)c(=O)n2[C@@H]2CN(S(=O)(=O)c3ccc(C)cc3)C[C@]12O
- IC50 [23]: 10.3 µM (inactive)
- IC50 [24]: > 69.5 µM (inactive)

Compound: Cc1ccccc1Cn1c(C)nc2ccccc21
- IC50 [25]: 13.2 µM (inactive)
- EC50 (cells [26]): > 29.9 µM (inactive)
- IC50 (Galanin receptor type 3): 331 nM (active)

Compound: O=C(O)c1cccc(N2C(=O)/C(=C/c3nc4ccccc4[nH]3)SC2=S)c1
- IC50 [27]: 8.93 µM (active)
- AC50 [28]: 3.31 µM (active)

Compound: CCN(CC)CCC(=O)Nc1cccc2c1C(=O)c1ccccc1C2=O
- EC50 [29]: 9.64 µM (active)
- AC50 (INS1): 4.28 µM (active)
- IC50 [30]: 6.86 µM (active)
- EC50 [31]: 610 nM (active)
- EC50 [32]: 13.4 µM (active)
- EC50 (cells [33]): 59.3 µM (active)
- EC50 [34]: > 91.3 µM (inactive)
- IC50 [35]: > 43.8 µM (inactive)
- EC50 (cells [36]): > 350 µM (not active)
- AC50 [37]: 801 nM (active)
